≈ marks a conversion by molar mass, not a printed value. Where a SMILES comes first, the peptide text is derived from it. Where no end group is shown, it is not given here. [ ]: non-standard residue; d: D form.
Columns and labels:
[1] = RP-HPLC analysis of stability to proteases in human serum; assay type: in vitro ADME; conditions: method details not given
Description: In the present study, HPLC was used to determine the stability of polybia-MPI, D-lys-MPI and D-MPI to trypsin, chymotrypsin and proteases in human serum.

[2] = test system: chymotrypsin; assay: Viability assay: antimicrobial activity against E. coli after chymotrypsin treatment (Fig. 5); assay type: in vitro ADME; conditions: 37 °C, then E. coli at MIC, OD 600 nm
[3] = test system: trypsin; assay: Radial diffusion assay after trypsin pre-incubation; assay type: in vitro ADME; conditions: pre-incubation 4 h 37 °C, plates 18–24 h 37 °C, Fig. 6
Description: (§1) The enzymatic stability of Polybia-MPI and its analogues was evaluated by a modification of the sensitive radial diffusion assay. The bacteria were cultured until the optical density at 600 nm (OD600) of an aliquot reached 0.5. One milliliter of the bacteria suspension was added to 100 ml of previously autoclaved, warm Mueller–Hinton agar (MHA)/Sabouraud dextrose agar. The medium were poured into layer of a 5 mm deep. Wells were performed with a sterile plastic bore of a 3-mm-diameter gel punch. Following the addition of 20 µl pre-incubated mixture of peptides and different concentrations of trypsin or chymotrypsin for 4 h into wells. The plates were incubated at 37 °C for 18 to 24 h. An equal volume of 20 µl mixture had no trypsin or chymotrypsin was used as the control. The size of the clear zones surrounding each well as indicators of the enzymatic stability of Polybia-MPI and its analogues.
(§2) Fig. 6 The viability of bacteria/fungi after incubation with peptides in the presence/absence of enzyme. Each peptide was pre-incubated with different concentrations of chymotrypsin (a) or trypsin (b) at 37 °C for 4 h. Then the samples were heat inactivated and poured into wells of plates. The plates were incubated at 37 °C for 18–24 h. Controls were without trypsin or chymotrypsin

[4] = test system: trypsin; assay: Bactericidal activity after trypsin treatment, colony plates (Fig. 4); conditions: peptide with trypsin 4 h 37 °C, enzyme heat inactivated at 60 °C, E. coli co-incubated 3 h, plated 24 h
Description: To test the stability of polybia-MPI and D-MPI, first 1 mg/l of the peptides were incubated with trypsin and chymotrypsin for 4 h for degradation. After the enzyme was heat inactivated at 60 °C for 15 min, E. coli was added and co-incubated for 3 h. Then, the treated bacteria were coated to plate and incubated at 37 °C for 24 h.
Peptides were incubated with the same volume of PBS (Left) or trypsin (Right) at 37 °C for 4 h. The enzyme was heat inactivated at 60 °C for 20 min, and E. coli suspension was added and co-incubated for 3 h. Then, the mixtures were plated onto MH broth ager and incubated for 18–24 h. Pictures of each plate were photographed

[5] = test system: trypsin; assay: Viability assay: antimicrobial activity against E. coli after trypsin treatment (Fig. 5); assay type: in vitro ADME; conditions: 37 °C, then E. coli at MIC, OD 600 nm
Description: Viability assay different concentration of trypsin (from 0.0002 to 2 mg/ml) incubated with peptides for 1 or 6 h at 37 °C, and the enzymatic activity was terminated by additional heat inactivation at 60 °C for 20 min. Then the trypsin treated peptides were incubated with Escherichia coli (ATCC25922) at the concentration of MIC in 96-wells microtiter plate overnight at 37 °C (Choi et al. [2013]). The growth inhibitory effect was determined by measuring the absorbance at 600 nm. Then we took 100 μl samples of 6 h from each well with the concentration of 0.2 mg/ml and plated onto MH broth ager after dilution. After overnight incubation at 37 °C, photos of plates were photographed and the colonies on the plate were counted.

[6] = test system: human erythrocytes; assay: Hemolytic activity; assay type: cell-based; conditions: 37 °C, Fig. 2; for hemolytic activity under the concentration of 100 μM: 8% human erythrocytes in PBS pH 7.4, 60 min, hemoglobin release at 490 nm; for hemolytic activity compared to polybia-MPI: 8% human erythrocytes in PBS pH 7.4, peptide up to 256 µM, 60 min, 490 nm
Description: Fresh human blood was collected in heparinized-tube, diluted in cold PBS (pH 7.4) and centrifuged at 800g for 10 min to remove the serum and buffy coat. The erythrocytes were washed twice time and re-suspended in the same buffer to a final erythrocyte concentration of 8% for the hemolysis assay (Sharma and Sharma [2001]). The RBC (red blood cell) suspension of 100 µl was transferred into a 96 well microtiter plate. Peptides were dissolved in PBS (pH 7.4) of different concentrations from 2 to 256 µM were incubated with 8% erythrocytes suspension for 60 min at 37 °C. Subsequently, the plate was centrifuged at 1200×g for 10 min. Then, aliquots of 100 µl supernatant were retransferred to an another 96-well plates and measured to monitor the release of hemoglobin by microplate reader (Bio-Rad 680) at 490 nm, which indicated RBC membrane damage. 100 µl RBC (red blood cell) suspension with 0.2% Triton-X 100 or PBS was used as positive and negative control, respectively. Hemolysis rate was determined as below: Hemolysisrate(%)=(A-A2)/(A1-A2)×100% where A is the absorbance of indicator mixtures with different factors, A1 and A2 are the positive control, and the negative control, respectively (Kim et al. [2011]).
Fig. 2 The hemolytic activity of polybia-MPI and synthetic D-MPI and D-lys-MPI against human erythrocytes were determined. Fresh human blood was collected and centrifuged to remove the serum and buffy coat, and re-suspended to a final erythrocyte concentration of 8% erythrocytes suspension. Then, peptides of different concentrations from 2 to 256 μM were incubated with erythrocytes suspension for 60 min. Subsequently, the erythrocytes suspension was centrifuged and measured to monitor the release of hemoglobin at 490 nm

[7] = test system: (ATCC 700603); conditions: ATCC 700603, 18 h
[8] = test system: chymotrypsin; assay: Radial diffusion assay after chymotrypsin pre-incubation; assay type: in vitro ADME; conditions: pre-incubation 4 h 37 °C, plates 18–24 h 37 °C, Fig. 6
Description: as §1, §2

[9] = test system: chymotrypsin; assay: RP-HPLC analysis of stability to chymotrypsin; assay type: in vitro ADME; conditions: peptide 10 mM, chymotrypsin 0.2 mg/ml, 37 °C, 0 and 360 min, TFA/acetonitrile precipitation, Fig. 7
Description: The stability of polybia-MPI and its analogues was assayed with trypsin or chymotrypsin in a volume ratio of 1:15 (peptide:trypsin) (Choi et al. [2013]; Hamamoto et al. [2002]; Molhoek et al. [2011]). Peptides at the concentration of 10 mM were incubated with trypsin or chymotrypsin (0.2 mg/ml) at 37 °C. 40 µl samples of the incubations were taken for the time of 0 and 360 min, respectively. Then, the samples were mixed with 80 µl of 15% trifluoroacetic acid (TFA) and 80 µl acetonitrile which incubated at 4 °C for at least 15 min to precipitate proteins. The supernatant was collected of each sample after centrifugation at 13,000 rpm for 10 min and were detected with reverse phase high performance liquid chromatography (RP-HPLC) analysis.
Fig. 7 HPLC analysis of the susceptibility of polybia-MPI, D-MPI and D-lys-MPI to trypsin and chymotrypsin. Peptides at the concentration of 10 mM were incubated with trypsin or chymotrypsin at 37 °C. At the determined time interval, samples were taken and mixed with trifluoroacetic acid (TFA) and acetonitrile to precipitate proteins, respectively. Then the samples were detected with reverse phase high performance liquid chromatography (RP-HPLC) analysis

Compound | susceptibility to proteases in human serum by HPLC profile [1] | antimicrobial activity after incubation with chymotrypsin ([2]; 2 mg/ml chymotrypsin, 6 h) | inhibition zone diameters after incubation with trypsin ([3]; 2 mg/ml trypsin) | E. coli colonies on plate after treatment with trypsin-incubated peptide [4] | antimicrobial activity after incubation with trypsin ([5]; 2 mg/ml trypsin, 6 h) | hemolytic activity under the concentration of 100 μM [6] | hemolytic activity compared to polybia-MPI [6] | MBC/MFC [7] | inhibition zone diameters after incubation with chymotrypsin ([8]; 2 mg/ml chymotrypsin) | susceptibility to chymotrypsin by HPLC profile [9] | chymotrypsin concentration that totally inhibits the antimicrobial activity of the peptide ([2]; incubation 1 h) | inhibition zone diameters after incubation with trypsin ([3]; 0.02–2 mg/ml trypsin) | trypsin concentration that totally inhibits the antimicrobial activity of the peptide ([5]; incubation 1 h) | inhibition zone diameters after incubation with chymotrypsin ([8]; 0.02–2 mg/ml chymotrypsin)
CC[C@@H](C)[C@@H](N)C(=O)N[C@H](CC(=O)O)C(=O)N[C@H](Cc1c[nH]c2ccccc12)C(=O)N[C@H](CCCCN)C(=O)N[C@H](CCCCN)C(=O)N[C@H](CC(C)C)C(=O)N[C@H](CC(C)C)C(=O)N[C@H](CC(=O)O)C(=O)N[C@H](C)C(=O)N[C@H](C)C(=O)N[C@H](CCCCN)C(=O)N[C@H](CCC(N)=O)C(=O)N[C@@H](C(=O)N[C@H](CC(C)C)C(N)=O)[C@H](C)CC [D-MPI] (H-[dI][dD][dW][dK][dK][dL][dL][dD][dA][dA][dK][dQ][dI][dL]-NH2) | not or only partly degraded | retained its antimicrobial activity | almost the same as control | no colony | retained its antimicrobial activity | no significant hemolytic activity | decreased | 128 µM (≈ 212 µg/mL) | almost the same as control | not or only partly degraded |  |  |  | 
IDWKKLLDAAKQIL-NH2 [Polybia-MPI] | susceptible |  |  | many colonies |  | no significant hemolytic activity |  | 256 µM |  | susceptible | 0.002 mg/mL | decreased even disappeared | 0.002 mg/mL | decreased even disappeared
CC[C@H](C)[C@H](N)C(=O)N[C@@H](CC(=O)O)C(=O)N[C@@H](Cc1c[nH]c2ccccc12)C(=O)N[C@H](CCCCN)C(=O)N[C@H](CCCCN)C(=O)N[C@@H](CC(C)C)C(=O)N[C@@H](CC(C)C)C(=O)N[C@@H](CC(=O)O)C(=O)N[C@@H](C)C(=O)N[C@@H](C)C(=O)N[C@H](CCCCN)C(=O)N[C@@H](CCC(N)=O)C(=O)N[C@H](C(=O)N[C@@H](CC(C)C)C(N)=O)[C@@H](C)CC [D-lys-MPI] (H-IDW[dK][dK]LLDAA[dK]QIL-NH2) | not or only partly degraded |  |  |  |  | no significant hemolytic activity | abrogated | >256 µM |  | not or only partly degraded |  |  |  | 
